Test results from patent US20220000971A1, “METHODS AND COMPOUNDS FOR TARGETING SORTILIN RECEPTORS AND INHIBITING VASCULOGENIC MIMICRY” (TRANSFERT PLUS, S.E.C., priority 2018, published 2022).
Entries after “also recorded” stand apart in the source; their conditions may differ. Where a SMILES comes first, the peptide text is derived from it. Where no end group is shown, it is not given here. [ ]: non-standard residue; d: D form. The star is where a group is joined. X2 = COc1cccc2c1C(=O)c1c(O)c3c(c(O)c1C2=O)C[C@@](O)(C(=O)COC(=O)CC(C)(C)CC(=O)*)C[C@@H]3O[C@H]1C[C@H](N)[C@H](O)[C@H](C)O1; Nle = CCCC[C@H](N)C(=O)O

Columns and labels:
[1] = system: ES-2 ovarian cancer cells; assay: In vitro vasculogenic mimicry, Matrigel tube formation assay (ES-2); type: cell-based, human; conditions: for inhibition of 3D-tubular structures (vasculogenic mimicry): ES-2 seeded on Matrigel, increasing concentrations; for effect on vasculogenic mimicry inhibition caused by KBB106: competitor added to KBB106
[2] = system: SK-Hep-1 hepatocellular carcinoma cells; conditions: Curcumin 3-30 μM, dose-dependent; cited from earlier work
[3] = molecular target: T1, Sortilin receptor (Homo sapiens, UniProt Q99523); assay: Cell surface binding assay with anti-Sortilin-Alexa488; conditions: antibody 1 μg/ml, 30 minutes; ES-2 cells; competitor present
T1 construct: endogenous in cells; host or cells: ES-2 human ovarian cancer cells
T1 sequence (Q99523 78-831): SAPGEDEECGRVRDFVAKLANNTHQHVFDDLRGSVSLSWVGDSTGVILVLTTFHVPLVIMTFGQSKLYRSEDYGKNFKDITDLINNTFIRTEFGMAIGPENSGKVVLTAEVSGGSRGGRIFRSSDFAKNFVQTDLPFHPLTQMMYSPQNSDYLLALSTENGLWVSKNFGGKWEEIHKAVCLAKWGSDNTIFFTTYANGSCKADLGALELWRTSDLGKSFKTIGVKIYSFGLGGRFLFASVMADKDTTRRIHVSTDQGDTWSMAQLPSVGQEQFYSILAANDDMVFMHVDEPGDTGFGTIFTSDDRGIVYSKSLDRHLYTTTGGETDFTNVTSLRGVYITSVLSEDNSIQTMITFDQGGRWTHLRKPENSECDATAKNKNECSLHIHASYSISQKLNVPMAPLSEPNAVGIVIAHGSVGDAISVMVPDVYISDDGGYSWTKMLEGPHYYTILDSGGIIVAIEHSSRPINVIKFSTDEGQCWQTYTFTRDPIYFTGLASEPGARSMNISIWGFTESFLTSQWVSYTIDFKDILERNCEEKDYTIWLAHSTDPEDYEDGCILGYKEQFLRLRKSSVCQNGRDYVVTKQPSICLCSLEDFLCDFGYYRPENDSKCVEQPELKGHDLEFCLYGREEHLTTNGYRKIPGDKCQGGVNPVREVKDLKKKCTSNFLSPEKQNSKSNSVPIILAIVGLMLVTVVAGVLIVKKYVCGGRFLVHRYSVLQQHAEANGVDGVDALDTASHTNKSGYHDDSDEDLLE
Experimental: Labeling of anti-Sortilin antibody was performed with the Alexa Fluor 488 protein labeling kit from Invitrogen according to manufacturer's instructions.

[4] = system: ES-2 ovarian cancer cells; assay: Real-time cell migration, xCELLigence (ES-2); type: cell-based, human
Experimental: (§1) In vitro vasculogenic mimicry of cancer cells was assessed using a Matrigel tube formation assay. In brief, each well of a 96-well plate was pre-coated with Matrigel. ES-2 ovarian cancer or MDA-MB-231 TNBC cell suspensions were seeded on top of Matrigel. 3D-tubular structures were analyzed and quantified using Wimasis Analysis software. Real-time cell migration was evaluated using the ×CELLigence system. Sortilin gene silencing was performed with specific siRNA. Effects of Doxorubicin-KA-peptide conjugate (DoxKA) KBA-106 represented by formula Acetyl-GVRAK(doxorubicin)AGVRN(Nle)FK(doxorubicin)SESY (Formula (XXVIII)) and Docetaxel-KA-peptide conjugate (DoceKA) represented by formula Acetyl-GVRAK(docetaxel)AGVRN(Nle)FK(docetaxel)SESY (Formula (XXIII)) targeting Sortilin on vasculogenic mimicry and cell migration were determined.

[5] = system: MDA-MB-231 cells; assay: Real-time cell migration, xCELLigence (MDA-MB-231); type: cell-based
Experimental: as §1
MDA-MB-231 cells were used as a TNBC cell model for in vitro and in vivo xenograft (CD1 nude mice) assays. Cell migration was assessed using the ×CELLigence real-time system, whereas MTT assay was used for cell proliferation analysis. Apoptosis biomarkers expression was assessed by immunoblotting.

[6] = system: SKOV-3 ovarian cancer cell line; assay: Intracellular delivery (uptake) of DoxKA, SKOV-3; type: cell-based; conditions: Sortilin silencing or ligand competition
Experimental: (§2) As a proof-of-concept, Doxorubicin was conjugated to a Sortilin binding peptide (KA-peptide). In vitro, intracellular delivery of the Doxorubicin-KA-peptide conjugate (DoxKA) KBB-106 represented by formula Acetyl-GVRAK(doxorubicin)AGVRN(Nle)FK(doxorubicin)SESY (Formula (XXVIII)) was assessed in ES-2 and SKOV-3 ovarian cancer cell line models using flow cytometry and fluorescent microscopy. Sortilin gene silencing was performed with specific siRNA. DoxKA efficacy and safety were evaluated in vivo using ES-2 (CD1 nude mice) and SKOV-3 (athymic mice) subcutaneous xenograft models.

[7] = system: human ovarian tumor xenografts; assay: DoxKA efficacy and safety in ES-2 and SKOV-3 subcutaneous xenograft models; type: in vivo, mice
Experimental: as §2

[8] = system: ES-2 ovarian cancer cell line; assay: Intracellular delivery (uptake) of DoxKA, ES-2; type: cell-based, human; conditions: Sortilin silencing or ligand competition
Experimental: as §2

[9] = molecular target: T2, P-glycoprotein (P-gp) efflux pump (Homo sapiens, UniProt P08183); assay: Uptake in MDCK-MDR1 cells overexpressing P-gp; type: in vitro ADME; conditions: with P-gp inhibitor Cyclosporin A
T2 construct: expressed in transfected cells; host or cells: MDCK-MDR1 cells

[10] = system: MDA-MB-231 cells; assay: Cell death / apoptosis (Annexin V-FITC/PI); type: cell-based; conditions: SORT1 ligand competition
Experimental: MDA-MB-231 cells treated for 5 hours with control (vehicle) or with increasing concentrations of Docetaxel or DoceKA. Cells were then harvested and the rate of apoptosis was determined following staining with Annexin V-FITC and propidium iodide (PI). Cells were analyzed by flow cytometry.

[11] = molecular target: T3, Sortilin receptor (human, UniProt Q99523 78-831); assay: inferred from the vasculogenic mimicry assay of ES-2 cells, excess KBP106 against KBB106
T3 construct: whole, on cells; also called SORT1
T3 sequence (looked up): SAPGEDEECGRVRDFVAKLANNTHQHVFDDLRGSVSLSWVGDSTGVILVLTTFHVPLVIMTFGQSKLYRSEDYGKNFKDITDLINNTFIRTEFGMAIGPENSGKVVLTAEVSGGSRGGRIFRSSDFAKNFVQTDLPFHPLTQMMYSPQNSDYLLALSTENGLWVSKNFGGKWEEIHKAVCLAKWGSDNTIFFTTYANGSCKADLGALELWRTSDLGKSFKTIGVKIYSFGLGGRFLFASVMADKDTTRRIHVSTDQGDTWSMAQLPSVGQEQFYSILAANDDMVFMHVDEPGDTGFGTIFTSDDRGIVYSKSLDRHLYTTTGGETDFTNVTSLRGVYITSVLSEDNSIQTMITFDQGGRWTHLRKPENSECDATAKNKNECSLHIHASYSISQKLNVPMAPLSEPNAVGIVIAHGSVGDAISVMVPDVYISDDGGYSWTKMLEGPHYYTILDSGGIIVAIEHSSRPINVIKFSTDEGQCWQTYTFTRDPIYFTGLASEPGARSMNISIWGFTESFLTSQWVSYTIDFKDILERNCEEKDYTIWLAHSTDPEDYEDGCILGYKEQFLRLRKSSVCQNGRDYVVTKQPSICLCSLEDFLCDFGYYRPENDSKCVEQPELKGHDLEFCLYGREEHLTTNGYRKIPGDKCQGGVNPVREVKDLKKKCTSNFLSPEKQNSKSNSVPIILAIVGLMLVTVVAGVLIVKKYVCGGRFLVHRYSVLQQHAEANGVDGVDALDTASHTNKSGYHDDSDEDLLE

T2 sequence (P08183 whole entry): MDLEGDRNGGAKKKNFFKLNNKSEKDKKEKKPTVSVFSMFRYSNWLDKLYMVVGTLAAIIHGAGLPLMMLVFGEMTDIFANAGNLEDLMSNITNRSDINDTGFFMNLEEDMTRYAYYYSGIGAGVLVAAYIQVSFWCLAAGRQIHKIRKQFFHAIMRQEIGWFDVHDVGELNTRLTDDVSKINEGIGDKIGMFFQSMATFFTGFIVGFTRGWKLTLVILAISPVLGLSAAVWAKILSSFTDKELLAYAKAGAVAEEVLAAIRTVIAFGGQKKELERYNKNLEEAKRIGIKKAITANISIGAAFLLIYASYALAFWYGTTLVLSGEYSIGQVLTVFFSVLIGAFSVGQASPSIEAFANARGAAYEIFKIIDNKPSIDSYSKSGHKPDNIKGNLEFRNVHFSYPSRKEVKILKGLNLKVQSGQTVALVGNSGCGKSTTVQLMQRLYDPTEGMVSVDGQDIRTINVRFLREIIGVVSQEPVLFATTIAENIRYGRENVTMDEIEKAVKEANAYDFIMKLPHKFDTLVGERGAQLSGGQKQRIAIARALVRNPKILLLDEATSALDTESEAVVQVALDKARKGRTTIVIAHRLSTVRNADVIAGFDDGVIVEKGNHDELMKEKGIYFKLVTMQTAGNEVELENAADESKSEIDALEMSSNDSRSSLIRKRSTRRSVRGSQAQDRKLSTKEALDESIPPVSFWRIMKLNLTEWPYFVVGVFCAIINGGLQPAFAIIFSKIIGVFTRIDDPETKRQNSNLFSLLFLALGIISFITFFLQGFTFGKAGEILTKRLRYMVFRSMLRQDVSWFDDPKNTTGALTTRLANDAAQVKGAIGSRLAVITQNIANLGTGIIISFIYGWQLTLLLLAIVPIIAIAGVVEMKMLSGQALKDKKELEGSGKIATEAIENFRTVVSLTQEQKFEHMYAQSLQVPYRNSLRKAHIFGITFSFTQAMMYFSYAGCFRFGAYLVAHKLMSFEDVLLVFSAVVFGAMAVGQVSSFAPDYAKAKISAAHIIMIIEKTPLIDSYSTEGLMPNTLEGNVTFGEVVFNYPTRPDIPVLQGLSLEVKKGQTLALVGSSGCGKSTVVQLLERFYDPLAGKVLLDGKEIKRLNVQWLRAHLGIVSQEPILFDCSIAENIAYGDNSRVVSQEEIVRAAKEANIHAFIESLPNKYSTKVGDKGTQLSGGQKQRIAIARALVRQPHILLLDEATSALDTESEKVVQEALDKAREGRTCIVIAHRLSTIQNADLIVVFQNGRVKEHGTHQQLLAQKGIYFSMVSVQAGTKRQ

## Acetyl-GVRAKAGVRN(Nle)FKSESYC(aldoxorubicin) [AldoxKA]
[1]
  inhibition of 3D-tubular structures (vasculogenic mimicry): inhibited

## COc1cc(/C=C/C(=O)CC(=O)/C=C/c2ccc(O)c(OC)c2)ccc1O [Curcumin, diferuloylmethane]
[2]
  inhibition of tube formation: 18-92%

## Acetyl-GVRAKAGVRN(Nle)FKSESY (Ac-GVRAKAGVRN[Nle]FKSESY) [KBP106]
[3]
  effect on binding of anti-Sortilin-Alexa488 at the cell surface: strongly reduced the binding
[1]; ES-2
  effect on vasculogenic mimicry inhibition caused by KBB106: prevents vascukogenic mimicry inhibition by KBB106
[1]; up to 50 μM, ES-2, 24 hours
  effect of peptide alone on vasculogenic mimicry: no significant effect

## CCCC[C@H](NC(=O)[C@H](CC(N)=O)NC(=O)[C@H](CCCNC(=N)N)NC(=O)[C@@H](NC(=O)CNC(=O)[C@H](C)NC(=O)[C@H](CCCCNC(=O)CC(C)(C)CC(=O)OCC(=O)[C@]1(O)Cc2c(O)c3c(c(O)c2[C@@H](O[C@H]2C[C@H](N)[C@H](O)[C@H](C)O2)C1)C(=O)c1c(OC)cccc1C3=O)NC(=O)[C@H](C)NC(=O)[C@H](CCCNC(=N)N)NC(=O)[C@@H](NC(=O)CNC(C)=O)C(C)C)C(C)C)C(=O)N[C@@H](Cc1ccccc1)C(=O)N[C@@H](CCCCNC(=O)CC(C)(C)CC(=O)OCC(=O)[C@]1(O)Cc2c(O)c3c(c(O)c2[C@@H](O[C@H]2C[C@H](N)[C@H](O)[C@H](C)O2)C1)C(=O)c1c(OC)cccc1C3=O)C(=O)N[C@@H](CO)C(=O)N[C@@H](CCC(=O)O)C(=O)N[C@@H](CO)C(=O)N[C@@H](Cc1ccc(O)cc1)C(=O)O [DoxKA, Acetyl-GVRAK(doxorubicin)AGVRN(Nle)FK(doxorubicin)SESY] (Ac-GVRAK(X2)AGVRN[Nle]FK(X2)SESY-OH)
[4]
  cell migration: inhibited
[5]
  cell migration: inhibited
[1]; ES-2 on Matrigel
  concentration at which total number of loops and total tube length are inhibited: inhibited at low nM concentrations
[1]; ES-2 on Matrigel, 12 hrs, equivalent concentration of free drug (Docetaxel 600 pM)
  vasculogenic mimicry inhibition compared to unconjugated drug: stronger inhibition of vasculogenic mimicry than unconjugated free drugs
[1]
  inhibition of 3D-tubular structures (vasculogenic mimicry): strongly inhibited; also recorded: inhibited
[1]; listed as KBB106
  inhibition of 3D-tubular structures (vasculogenic mimicry): vascukogenic mimicry inhibition
[1]; Example 2, ovarian cancer and TNBC cells
  IC50 values for vasculogenic mimicry inhibition: low nM to pM
[6]
  uptake: reduced when Sortilin expression was specifically silenced or upon competition with the Sortilin ligands Neurotensin and Progranulin
[7]; equivalent dose
  inhibition of tumor xenografts growth compared to unconjugated Doxorubicin: more potent inhibition
  tolerability compared to unconjugated Doxorubicin: better tolerated (absence of leukopenia and neutropenia)
[7]; in vivo, heart and ovary
  accumulation in healthy tissues compared to Doxorubicin: decreased accumulation in healthy tissues such as heart and ovary
[8]
  uptake: reduced when Sortilin expression was specifically silenced or upon competition with the Sortilin ligands Neurotensin and Progranulin
[9]
  uptake in P-gp overexpressing cells: unaffected by the P-gp inhibitor Cyclosporin A

## Acetyl-YKSLRRKAPRWDAPLRDPALRQLL (Ac-YKSLRRKAPRWDAPLRDPALRQLL) [KBP201]
[3]
  effect on binding of anti-Sortilin-Alexa488 at the cell surface: strongly reduced the binding

## progranulin: Sortilin ligand [reference compound]
[10]
  effect on apoptotic and anti-migratory effects of DoceKA: reversed
[3]
  effect on binding of anti-Sortilin-Alexa488 at the cell surface: inhibited
[1]; ES-2, 12 hours
  effect of Sortilin ligand alone on vasculogenic mimicry: do not effect vasculogenic mimicry
[1]; ES-2
  effect on vasculogenic mimicry inhibition caused by KBB106: reverses vasculogenic mimicry inhibition

B1: KBP-106: Acetyl-GVRAKAGVRN(Nle)FKSESY (peptide)
peptide: Ac-GVRAKAGVRN[Nle]FKSESY
notes: also called Katana peptide; KA-peptide
[11]
  binding result: binds
